From patent US8158636B2, “Compounds and methods for kinase modulation, and indications therefor” (Plexxikon Inc., priority 2008, dated 2012)

Key:
Format in all cases: biochemical
Kdr = Kdr (Homo sapiens, UniProt P35968); experiment: Kinase activity assay, Kdr; settings: Table 1i; read-out: activity toward kinase Kdr, IC50
Text: (§1) Assays for the activity of kinases, including, but not limited to, Fms, Kit, B-Raf, B-Raf V600E, c-Raf-1, and TrkA are known in the art, for example as described in US Patent Publication Number US20070032519 and U.S. patent application Ser. No. 11/473,347 (see also, PCT publication WO2007002433), the disclosures of which are hereby incorporated by reference with respect to such assays.

Fms = Fms (Homo sapiens, UniProt P07333); experiment: Kinase activity assay, Fms; settings: Table 1h; read-out: activity toward kinase Fms, IC50
Text: as §1

B-Raf V600E = B-Raf V600E (Homo sapiens, UniProt P15056, V600E); experiment: Kinase activity assay, B-Raf V600E; settings: Table 1c; read-out: activity toward kinase B-Raf V600E, IC50
Text: as §1

Kit = Kit (Homo sapiens, UniProt P10721); experiment: Kinase activity assay, Kit; settings: Table 1j; read-out: activity toward kinase Kit, IC50
Text: as §1

Flt-3 = biological target: T1, Flt-3 (Homo sapiens, UniProt P36888); experiment: Kinase activity assay, Flt-3; settings: Table 1g; read-out: activity toward kinase Flt-3, IC50
T1 sequence (P36888 27-993): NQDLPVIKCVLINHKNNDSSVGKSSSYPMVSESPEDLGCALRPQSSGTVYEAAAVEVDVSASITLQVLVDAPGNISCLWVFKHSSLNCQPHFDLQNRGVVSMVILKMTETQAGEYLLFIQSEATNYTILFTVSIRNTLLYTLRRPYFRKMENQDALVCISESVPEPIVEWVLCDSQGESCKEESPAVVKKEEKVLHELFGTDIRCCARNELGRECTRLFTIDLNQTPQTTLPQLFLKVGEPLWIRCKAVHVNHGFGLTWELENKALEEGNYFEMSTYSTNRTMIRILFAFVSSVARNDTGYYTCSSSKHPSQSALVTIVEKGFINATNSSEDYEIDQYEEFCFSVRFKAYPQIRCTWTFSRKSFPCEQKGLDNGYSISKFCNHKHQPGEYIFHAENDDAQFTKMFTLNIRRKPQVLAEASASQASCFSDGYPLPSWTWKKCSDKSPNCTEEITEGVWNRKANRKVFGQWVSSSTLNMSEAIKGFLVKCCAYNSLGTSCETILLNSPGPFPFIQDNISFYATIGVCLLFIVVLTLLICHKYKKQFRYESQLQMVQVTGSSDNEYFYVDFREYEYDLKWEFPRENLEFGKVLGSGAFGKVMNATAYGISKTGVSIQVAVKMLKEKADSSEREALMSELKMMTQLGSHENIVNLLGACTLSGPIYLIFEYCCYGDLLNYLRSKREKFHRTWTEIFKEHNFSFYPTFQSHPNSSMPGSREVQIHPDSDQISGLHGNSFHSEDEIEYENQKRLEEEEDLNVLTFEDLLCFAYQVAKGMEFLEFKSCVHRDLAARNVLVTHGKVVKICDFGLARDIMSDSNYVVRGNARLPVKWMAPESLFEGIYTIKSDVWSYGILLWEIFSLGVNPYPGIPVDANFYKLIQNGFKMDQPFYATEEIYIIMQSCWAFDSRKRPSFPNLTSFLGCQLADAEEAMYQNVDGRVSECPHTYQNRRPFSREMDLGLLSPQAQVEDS
Text: as §1

C-Raf = C-Raf (Homo sapiens, UniProt P04049); experiment: Kinase activity assay, C-Raf; settings: Table 1d; read-out: activity toward kinase C-Raf, IC50
Text: as §1

TrkA = TrkA (Homo sapiens, UniProt P04629); experiment: Kinase activity assay, TrkA; settings: Table 1m; read-out: activity toward kinase TrkA, IC50
Text: as §1

B-Raf = B-Raf (Homo sapiens, UniProt P15056); experiment: Kinase activity assay, B-Raf; settings: Table 1b; read-out: activity toward kinase B-Raf, IC50
Text: as §1

Measured: IC50

B-Raf V600E, sequence (P15056 whole entry V600E): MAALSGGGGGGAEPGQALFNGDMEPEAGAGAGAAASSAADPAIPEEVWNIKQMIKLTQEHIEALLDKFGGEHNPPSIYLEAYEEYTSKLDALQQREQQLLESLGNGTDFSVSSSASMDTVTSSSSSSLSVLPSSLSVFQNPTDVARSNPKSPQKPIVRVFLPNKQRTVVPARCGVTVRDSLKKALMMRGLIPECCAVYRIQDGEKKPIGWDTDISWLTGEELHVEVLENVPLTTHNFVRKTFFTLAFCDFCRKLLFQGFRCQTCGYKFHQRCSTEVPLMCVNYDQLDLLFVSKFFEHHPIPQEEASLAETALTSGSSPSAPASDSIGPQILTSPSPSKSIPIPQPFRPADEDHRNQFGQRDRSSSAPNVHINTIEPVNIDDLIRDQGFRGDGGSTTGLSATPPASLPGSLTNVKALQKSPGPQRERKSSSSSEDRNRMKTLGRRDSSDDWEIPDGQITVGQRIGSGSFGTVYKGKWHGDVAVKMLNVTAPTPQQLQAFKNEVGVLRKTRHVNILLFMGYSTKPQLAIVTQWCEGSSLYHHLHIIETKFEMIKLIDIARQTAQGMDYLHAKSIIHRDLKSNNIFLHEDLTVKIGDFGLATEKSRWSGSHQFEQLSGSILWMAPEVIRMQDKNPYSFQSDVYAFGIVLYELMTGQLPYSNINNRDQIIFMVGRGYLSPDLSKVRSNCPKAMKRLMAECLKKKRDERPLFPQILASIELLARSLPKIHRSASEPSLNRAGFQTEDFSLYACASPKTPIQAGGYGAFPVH
B-Raf, sequence (P15056 whole entry): as the sequence (P15056 whole entry V600E) above, with E600V counted along it
C-Raf, sequence (P04049 whole entry): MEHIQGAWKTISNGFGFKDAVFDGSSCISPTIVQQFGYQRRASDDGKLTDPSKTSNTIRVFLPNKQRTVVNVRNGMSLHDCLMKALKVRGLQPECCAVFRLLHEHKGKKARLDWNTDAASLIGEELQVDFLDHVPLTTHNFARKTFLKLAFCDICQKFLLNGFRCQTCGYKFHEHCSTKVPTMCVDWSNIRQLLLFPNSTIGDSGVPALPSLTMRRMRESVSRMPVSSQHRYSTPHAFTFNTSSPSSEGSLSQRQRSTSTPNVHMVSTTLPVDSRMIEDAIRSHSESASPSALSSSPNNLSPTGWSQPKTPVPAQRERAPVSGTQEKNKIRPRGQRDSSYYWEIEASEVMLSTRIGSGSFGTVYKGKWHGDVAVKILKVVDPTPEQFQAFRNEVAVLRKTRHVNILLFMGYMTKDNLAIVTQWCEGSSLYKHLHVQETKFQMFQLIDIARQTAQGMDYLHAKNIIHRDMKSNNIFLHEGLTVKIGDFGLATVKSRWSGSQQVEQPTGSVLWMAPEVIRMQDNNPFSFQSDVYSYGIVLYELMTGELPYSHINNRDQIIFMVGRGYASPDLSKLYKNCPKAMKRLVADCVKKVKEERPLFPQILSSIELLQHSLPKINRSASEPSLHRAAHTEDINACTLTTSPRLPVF
Kdr, sequence (P35968 20-1356): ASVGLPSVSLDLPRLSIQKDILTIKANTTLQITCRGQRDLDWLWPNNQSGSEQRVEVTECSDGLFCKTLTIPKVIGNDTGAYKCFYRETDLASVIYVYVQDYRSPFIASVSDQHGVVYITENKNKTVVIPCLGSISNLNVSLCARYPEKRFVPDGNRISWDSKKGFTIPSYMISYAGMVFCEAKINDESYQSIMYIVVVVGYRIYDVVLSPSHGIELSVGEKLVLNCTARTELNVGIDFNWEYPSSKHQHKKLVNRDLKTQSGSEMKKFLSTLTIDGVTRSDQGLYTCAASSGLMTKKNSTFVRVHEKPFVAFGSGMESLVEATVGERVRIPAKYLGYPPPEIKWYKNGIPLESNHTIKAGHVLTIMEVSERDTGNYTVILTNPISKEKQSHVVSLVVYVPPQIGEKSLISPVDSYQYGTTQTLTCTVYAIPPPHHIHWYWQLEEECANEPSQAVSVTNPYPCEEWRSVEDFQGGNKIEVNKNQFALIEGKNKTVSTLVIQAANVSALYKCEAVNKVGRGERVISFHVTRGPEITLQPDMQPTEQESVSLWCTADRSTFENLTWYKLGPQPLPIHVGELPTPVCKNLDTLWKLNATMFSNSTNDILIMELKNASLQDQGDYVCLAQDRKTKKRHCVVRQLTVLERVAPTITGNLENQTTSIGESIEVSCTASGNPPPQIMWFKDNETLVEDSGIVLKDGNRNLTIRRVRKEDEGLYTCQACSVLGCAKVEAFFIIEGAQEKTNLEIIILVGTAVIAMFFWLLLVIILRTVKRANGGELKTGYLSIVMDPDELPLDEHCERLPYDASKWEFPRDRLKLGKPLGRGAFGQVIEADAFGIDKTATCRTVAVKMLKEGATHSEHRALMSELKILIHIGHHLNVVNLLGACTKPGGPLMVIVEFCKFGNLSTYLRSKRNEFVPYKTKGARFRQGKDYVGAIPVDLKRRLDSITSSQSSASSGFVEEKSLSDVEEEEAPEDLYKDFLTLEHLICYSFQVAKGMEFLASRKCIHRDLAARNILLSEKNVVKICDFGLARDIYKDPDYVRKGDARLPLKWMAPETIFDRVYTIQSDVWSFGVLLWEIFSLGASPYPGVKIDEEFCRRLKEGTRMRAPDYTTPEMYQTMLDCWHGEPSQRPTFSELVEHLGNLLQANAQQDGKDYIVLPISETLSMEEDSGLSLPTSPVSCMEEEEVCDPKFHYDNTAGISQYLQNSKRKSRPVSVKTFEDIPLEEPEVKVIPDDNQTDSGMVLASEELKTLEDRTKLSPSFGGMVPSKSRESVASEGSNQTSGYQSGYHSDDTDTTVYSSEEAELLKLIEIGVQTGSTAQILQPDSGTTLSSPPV
Kit, sequence (P10721 26-976): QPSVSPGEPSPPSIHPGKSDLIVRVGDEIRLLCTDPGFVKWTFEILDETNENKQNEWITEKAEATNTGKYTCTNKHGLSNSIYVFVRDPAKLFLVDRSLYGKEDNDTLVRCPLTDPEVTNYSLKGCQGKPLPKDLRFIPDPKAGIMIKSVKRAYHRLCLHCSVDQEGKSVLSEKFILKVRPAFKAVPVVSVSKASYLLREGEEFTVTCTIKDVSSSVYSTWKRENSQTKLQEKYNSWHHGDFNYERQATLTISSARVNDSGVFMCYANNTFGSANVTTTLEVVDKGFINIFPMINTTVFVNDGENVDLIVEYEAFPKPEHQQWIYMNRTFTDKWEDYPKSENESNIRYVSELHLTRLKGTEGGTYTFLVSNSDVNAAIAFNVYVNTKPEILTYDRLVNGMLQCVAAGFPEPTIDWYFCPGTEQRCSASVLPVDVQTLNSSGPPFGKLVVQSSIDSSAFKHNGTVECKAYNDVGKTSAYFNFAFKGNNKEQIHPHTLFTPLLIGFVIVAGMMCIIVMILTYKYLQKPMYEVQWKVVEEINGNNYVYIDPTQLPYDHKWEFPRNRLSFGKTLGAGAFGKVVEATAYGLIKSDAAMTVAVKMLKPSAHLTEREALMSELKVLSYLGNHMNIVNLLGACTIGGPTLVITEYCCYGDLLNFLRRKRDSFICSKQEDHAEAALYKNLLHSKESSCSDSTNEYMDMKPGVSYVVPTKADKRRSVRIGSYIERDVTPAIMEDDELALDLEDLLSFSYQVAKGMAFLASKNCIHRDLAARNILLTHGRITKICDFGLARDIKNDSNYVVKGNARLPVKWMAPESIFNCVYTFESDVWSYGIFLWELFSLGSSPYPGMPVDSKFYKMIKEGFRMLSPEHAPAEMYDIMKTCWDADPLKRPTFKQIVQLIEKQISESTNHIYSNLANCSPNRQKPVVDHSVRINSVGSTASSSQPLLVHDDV
Fms, sequence (P07333 20-972): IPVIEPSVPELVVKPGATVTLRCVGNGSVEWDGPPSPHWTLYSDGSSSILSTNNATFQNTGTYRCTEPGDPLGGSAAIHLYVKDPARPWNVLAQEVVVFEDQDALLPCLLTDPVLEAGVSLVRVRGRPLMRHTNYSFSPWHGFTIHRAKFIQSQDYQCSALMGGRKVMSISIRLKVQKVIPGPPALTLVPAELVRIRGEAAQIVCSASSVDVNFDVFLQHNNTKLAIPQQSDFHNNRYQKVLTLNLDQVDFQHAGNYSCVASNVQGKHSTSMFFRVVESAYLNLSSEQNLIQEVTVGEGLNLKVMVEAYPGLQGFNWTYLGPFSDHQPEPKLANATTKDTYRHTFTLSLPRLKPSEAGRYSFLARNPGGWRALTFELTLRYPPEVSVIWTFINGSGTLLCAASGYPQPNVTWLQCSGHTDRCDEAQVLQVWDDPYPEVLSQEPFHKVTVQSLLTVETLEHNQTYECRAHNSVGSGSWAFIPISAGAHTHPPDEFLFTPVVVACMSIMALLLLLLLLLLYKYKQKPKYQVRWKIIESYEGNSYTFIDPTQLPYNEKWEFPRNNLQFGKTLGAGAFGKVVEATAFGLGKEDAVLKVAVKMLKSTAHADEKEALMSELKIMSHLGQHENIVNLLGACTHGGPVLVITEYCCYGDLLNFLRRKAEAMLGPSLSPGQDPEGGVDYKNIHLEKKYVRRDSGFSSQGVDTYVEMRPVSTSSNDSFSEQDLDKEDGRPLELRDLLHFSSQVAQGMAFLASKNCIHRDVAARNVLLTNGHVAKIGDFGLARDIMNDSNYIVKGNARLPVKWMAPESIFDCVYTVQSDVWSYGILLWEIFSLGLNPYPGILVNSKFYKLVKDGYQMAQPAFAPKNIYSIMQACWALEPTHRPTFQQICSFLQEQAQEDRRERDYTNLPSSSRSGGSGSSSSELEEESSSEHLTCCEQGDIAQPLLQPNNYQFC

COc1ccc(CNc2ccc(Cc3c[nH]c4ncncc34)cn2)cn1 [P-0002, (6-Methoxy-pyridin-3-ylmethyl)-[5-(7H-pyrrolo[2,3-d]pyrimidin-5-ylmethyl)-pyridin-2-yl]-amine]
≤ 10 µM: Kdr | Fms | B-Raf V600E | Kit | Flt-3

FC(F)(F)c1ccc(CNc2ccc(Cc3c[nH]c4ncncc34)cn2)cn1 [P-0004, [5-(7H-Pyrrolo[2,3-d]pyrimidin-5-ylmethyl)-pyridin-2-yl]-(6-trifluoromethyl-pyridin-3-ylmethyl)-amine]
≤ 10 µM: Kdr | Fms | B-Raf V600E | C-Raf | Kit

COc1ccc(CNc2ccc(C(=O)c3c[nH]c4ncncc34)cn2)cn1 [P-0008, {6-[(6-Methoxy-pyridin-3-ylmethyl)-amino]-pyridin-3-yl}-(7H-pyrrolo[2,3-d]pyrimidin-5-yl)-methanone]
≤ 10 µM: Kdr | B-Raf V600E | Kit | Flt-3

COc1ncc(CNc2ccc(Cc3c[nH]c4ncncc34)c(F)n2)cc1F [P-0010, (5-Fluoro-6-methoxy-pyridin-3-ylmethyl)-[6-fluoro-5-(7H-pyrrolo[2,3-d]pyrimidin-5-ylmethyl)-pyridin-2-yl]-amine]
≤ 10 µM: Kdr | Fms | TrkA | Flt-3

Fc1nc(NCc2ccc(N3CCOCC3)nc2)ccc1Cc1c[nH]c2ncncc12 [P-0039, [6-Fluoro-5-(7H-pyrrolo[2,3-d]pyrimidin-5-ylmethyl)-pyridin-2-yl]-(6-morpholin-4-yl-pyridin-3-ylmethyl)-amine]
≤ 10 µM: Kdr | Fms | B-Raf V600E | C-Raf

Fc1ccc(CNc2ccc(Cc3c[nH]c4ncncc34)c(F)n2)nc1 [P-0041, (5-Fluoro-pyridin-2-ylmethyl)-[6-fluoro-5-(7H-pyrrolo[2,3-d]pyrimidin-5-ylmethyl)-pyridin-2-yl]-amine]
≤ 10 µM: Kdr | Fms | B-Raf V600E | C-Raf | Kit

COc1ccc(CNc2ccc(Cc3c[nH]c4ncncc34)c(F)n2)c(OC)n1 [P-0043, (2,6-Dimethoxy-pyridin-3-ylmethyl)-[6-fluoro-5-(7H-pyrrolo[2,3-d]pyrimidin-5-ylmethyl)-pyridin-2-yl]-amine]
≤ 10 µM: Kdr | Fms | Kit | B-Raf

Fc1nc(NCc2cncc(Cl)c2)ccc1Cc1c[nH]c2ncncc12 [P-0044, (5-Chloro-pyridin-3-ylmethyl)-[6-fluoro-5-(7H-pyrrolo[2,3-d]pyrimidin-5-ylmethyl)-pyridin-2-yl]-amine]
≤ 10 µM: Kdr | Fms | B-Raf V600E | C-Raf

Fc1nc(NCc2cccnc2OCC(F)(F)F)ccc1Cc1c[nH]c2ncncc12 [P-0051, [6-Fluoro-5-(7H-pyrrolo[2,3-d]pyrimidin-5-ylmethyl)-pyridin-2-yl]-[2-(2,2,2-trifluoro-ethoxy)-pyridin-3-ylmethyl]-amine]
not listed: Flt-3 | B-Raf
≤ 10 µM: all other assays above

CS(=O)(=O)c1ccc(F)cc1CNc1ccc(Cc2c[nH]c3ncncc23)c(F)n1 [P-0052, (5-Fluoro-2-methanesulfonyl-benzyl)-[6-fluoro-5-(7H-pyrrolo[2,3-d]pyrimidin-5-ylmethyl)-pyridin-2-yl]-amine]
≤ 10 µM: Fms | B-Raf V600E | TrkA | C-Raf | B-Raf

CC(C)Oc1ncccc1CNc1ccc(Cc2c[nH]c3ncncc23)c(F)n1 [P-0057, [6-Fluoro-5-(7H-pyrrolo[2,3-d]pyrimidin-5-ylmethyl)-pyridin-2-yl]-(2-isopropoxy-pyridin-3-ylmethyl)-amine]
≤ 10 µM: Kdr | Fms | TrkA | C-Raf | Kit

Fc1nc(NCc2cccnc2OC2CCCC2)ccc1Cc1c[nH]c2ncncc12 [P-0070, (2-Cyclopentyloxy-pyridin-3-ylmethyl)-[6-fluoro-5-(7H-pyrrolo[2,3-d]pyrimidin-5-ylmethyl)-pyridin-2-yl]-amine]
not listed: Flt-3
≤ 10 µM: all other assays above

c1cnc(OC2CCCC2)c(CNc2ncc(Cc3c[nH]c4ncncc34)cn2)c1 [P-0086, (2-Cyclopentyloxy-pyridin-3-ylmethyl)-[5-(7H-pyrrolo[2,3-d]pyrimidin-5-ylmethyl)-pyrimidin-2-yl]-amine]
not listed: Flt-3 | TrkA
≤ 10 µM: all other assays above

COc1ncc(F)cc1CNc1ncc(Cc2c[nH]c3ncnc(OC)c23)cn1 [P-0093, (5-Fluoro-2-methoxy-pyridin-3-ylmethyl)-[5-(4-methoxy-7H-pyrrolo[2,3-d]pyrimidin-5-ylmethyl)-pyrimidin-2-yl]-amine]
≤ 10 µM: Kdr | Fms | C-Raf | Kit

COc1cc(Cc2c[nH]c3ncnc(OC)c23)cnc1NCc1ccc(C(F)(F)F)nc1 [P-0096, [3-Methoxy-5-(4-methoxy-7H-pyrrolo[2,3-d]pyrimidin-5-ylmethyl)-pyridin-2-yl]-(6-trifluoromethyl-pyridin-3-ylmethyl)-amine]
≤ 10 µM: Kdr | Fms | C-Raf | Kit | B-Raf

COc1ncnc2[nH]cc(Cc3ccc(NCc4ccc(C(F)(F)F)nc4)nc3)c12 [P-0100, [5-(4-Methoxy-7H-pyrrolo[2,3-d]pyrimidin-5-ylmethyl)-pyridin-2-yl]-(6-trifluoromethyl-pyridin-3-ylmethyl)-amine]
not listed: Flt-3
≤ 10 µM: all other assays above

FC(F)(F)c1ccc(CNc2ccc(Cc3c[nH]c4ncnc(C5CCCC5)c34)cn2)cn1 [P-0104, [5-(4-Cyclopentyl-7H-pyrrolo[2,3-d]pyrimidin-5-ylmethyl)-pyridin-2-yl]-(6-trifluoromethyl-pyridin-3-ylmethyl)-amine]
≤ 10 µM: Fms | Kit | Flt-3
